Laboratory results as given in article PMC9578020, “Design, synthesis, molecular modeling, and bioactivity evaluation of 1,10-phenanthroline and prodigiosin (Ps) derivatives and their Copper(I) complexes against mTOR and HDAC enzymes as highly potent and effective new anticancer therapeutic drugs” (Frontiers in Pharmacology, 2022).
pIC50: −log10 of the molar value. Values joined by “and” are separate entries in the source; they are usually repeats but may differ in a detail not shown here. Equal values may be shown once. Read-outs that look alike come from different tables or passages of the source.

Assays:
[1] = system: MDA-MB-231 (231); experiment: CCK8 anticancer activity / cytotoxicity test, 231; assay type: cell-based, human
[2] = system: MDA-MB-361 (361); experiment: CCK8 anticancer activity / cytotoxicity test, 361; assay type: cell-based
Description: (§1) The IC50 was calculated by SPSS statistics (IBM). […] All cytotoxicity tests were performed in six biological replicates.
(§2) The anticancer activity against 231BR is of highest interest. […] Figure 3 depicts the anticancer activities of these compounds.

[3] = system: MDA-MB-231BR (231BR); experiment: CCK8 anticancer activity / cytotoxicity test, 231BR; assay type: cell-based
Description: as §1, §2

[4] = system: HTB131; experiment: CCK8 anticancer activity / cytotoxicity test, HTB131; assay type: cell-based
[5] = system: MCF10A; experiment: CCK8 cytotoxicity test on normal cell line MCF10A
Description: (§3) MDA-MB-231 (231) and HTB131 were grown with RPIM-1640 medium (with 10% Fetal Bovine Serum and 2% Penicillin-Streptomycin Solution). MDA-MB-231BR (231BR), CRL-1620 (CRL), and MCF10A were grown with DMEM (with 10% Fetal Bovine Serum and 2% Penicillin-Streptomycin Solution). HTB22 was grown with EMEM (with 10% Fetal Bovine Serum and 2% Penicillin-Streptomycin Solution). Cell lines were taken out from liquid nitrogen and thawed in a 37°C water bath. After thawing, cell cultures were transferred to 75 cm^2 flasks and incubated at 37°C with 5% CO2 for 4–7 days. After reaching 80% of cell confluence, cells were ready for subculturing or testing.
(§4) Anticancer activity tests were performed using a Cell Counting Kit-8 (CCK8, SigmaAldrich) following manufacturer’s instruction ([Shen et al., 2016]). Briefly, 100 µl of diluted cell suspension (approximately 10000 cells) was transferred to 96-well plate, incubated at 37°C with 5% CO2 for 24 h. Then, the compounds were diluted into a serial of concentrations in DMSO. Next, 0.5 µl of diluted compounds were added to 100 µl of cell medium and gently mixed, resulting in the final concentration of DMSO at 0.5%. 100 µl of the compound contained medium were then used to replace the original medium and incubated at 37°C for 48 h. After incubation with compounds, 10 µl of CCK8 reagent was added to each well and mixed by gently tapping the plate. Then, the plate was incubated at 37°C for 2–4 h until the orange color was dark enough to measure. The plate was measured using a Multiskan microplate reader (Fisher Scientific) at 450 nm. The IC50 was calculated by SPSS statistics (IBM). […] All cytotoxicity tests were performed in six biological replicates. Each compound was performed two cycles of screening: primary screening using 10 times serial dilution to determine the approximate concentration and then secondary screening using a narrow concentration range to acquire the accurate IC50.
(§5) The newly synthesized molecules in which their binding affinities were predicted in silico were tested on five different breast cancer lines, MDA-MB-231 (231), MDA-MB-361 (361), HTB131, HTB22, and MDA-MB-231BR (231BR), and one brain cancer cell line, CRL-1620 (CRL). […] Among these cell lines, 231BR attracted most of our interest because it is a brain metastatic specific breast cancer cell line that has 100% rate of brain metastasis and cannot migrate to any other organs ([Yoneda et al., 2001]). The anticancer capacities of each compound were first screened by 10 times dilution to generate different molar concentrations ranging in 5 orders of magnitudes. This wide concentration range was applied for primary screening (Supplementary Table S3) to narrow down the targets. The approximate IC50 was estimated in the primary screening step and used to design the concentration range of the secondary cytotoxicity tests (Supplementary Table S4). […] Anticancer drug taxol (paclitaxel) was used as the reference to estimate the efficacy of each compound. […] The anticancer activity against 231BR is of highest interest. Meanwhile, the same treatments were performed against the normal breast cell line, MCF10A, to test their cytotoxicity. […] A negative logarithm of IC50 was applied to represent the corresponding anticancer activity.

[6] = system: CRL-1620 (CRL); experiment: CCK8 anticancer activity / cytotoxicity test, CRL; assay type: cell-based
[7] = system: HTB22; experiment: CCK8 anticancer activity / cytotoxicity test, HTB22; assay type: cell-based; conditions: read-out: Approximate IC50, primary screening
Description: as §1, §2

[8] = CCK8 cytotoxicity test on normal cell line MCF10A; conditions: human
Description: as §3, §4, §5

[9] = 231BR, 48 h, 10 times serial dilution, read-out: Approximate IC50, primary screening
[10] = HTB131, 48 h, 10 times serial dilution, read-out: Approximate IC50, primary screening
[11] = 231BR, 48 h, narrow concentration range, read-out: IC50, secondary cytotoxicity test
[12] = HTB131, 48 h, narrow concentration range, read-out: IC50, secondary cytotoxicity test
[13] = CRL, 48 h, narrow concentration range, read-out: IC50, secondary cytotoxicity test
[14] = CRL, 48 h, 10 times serial dilution, read-out: Approximate IC50, primary screening
[15] = HTB22, 48 h, 10 times serial dilution
[16] = Homo sapiens, MDA-MB-231; 231, 48 h, 10 times serial dilution; read-out: Approximate IC50, primary screening
[17] = Homo sapiens, MDA-MB-231; 231, 48 h, narrow concentration range; read-out: IC50, secondary cytotoxicity test
[18] = Homo sapiens, MDA-MB-361, 361, 48 h, 10 times serial dilution, read-out: Approximate IC50, primary screening
[19] = Homo sapiens, MCF-10A, 48 h, read-out: Approximate IC50, primary screening
[20] = 48 h, read-out: Approximate IC50, primary screening
[21] = 48 h, read-out: IC50, secondary cytotoxicity test

COc1ccc(-c2ccc3ccc4ccc(-c5ccc(OC)cc5)nc4c3n2)cc1.Cc1cc2ccc1OCCOCCOCCOCCOCCOc1ccc(cc1C)-c1ccc3ccc4ccc-2nc4c3n1.F[P-](F)(F)(F)(F)F.[Cu+] [Compound C1]
pIC50 [1]: 6.39 | pIC50 [2]: 5.19 | pIC50 [3]: 6.22 | pIC50 [3, 9]: > 5.00 | pIC50 [4]: 6.64 | pIC50 [5]: 6.00 | pIC50 [6]: 6.50

CCC1=NC(=Cc2[nH]c(-c3cn[nH]c3)cc2OC)C=C1.CCC1=NC(=Cc2[nH]c(-c3cn[nH]c3)cc2OC)C=C1.F[P-](F)(F)(F)(F)F.[Cu+] [Compound C8]
pIC50 [3, 9]: 4.31

CCC1=NC(=Cc2[nH]c(-c3ccn[nH]3)cc2OC)C=C1.CCC1=NC(=Cc2[nH]c(-c3ccn[nH]3)cc2OC)C=C1.F[P-](F)(F)(F)(F)F.[Cu+] [Compound C9]
pIC50 [4, 10]: 4.99

CCC1=NC(=Cc2[nH]c(-c3ncc[nH]3)cc2OC)C=C1.CCC1=NC(=Cc2[nH]c(-c3ncc[nH]3)cc2OC)C=C1.F[P-](F)(F)(F)(F)F.[Cu+] [Compound C10]
pIC50 ([1]; 231, 48 h, narrow concentration range; read-out: IC50, secondary cytotoxicity test): 5.54 | pIC50 [3, 11]: 5.66 | pIC50 [4, 12]: 5.66 | pIC50 ([5]; read-out: IC50, secondary cytotoxicity test, MCF10A normal cell line, 48 h, Table S4): 5.85 | pIC50 [6, 13]: 5.80

CCC1=NC(=Cc2[nH]c(-c3ccc4[nH]ccc4c3)cc2OC)C=C1.CCC1=NC(=Cc2[nH]c(-c3ccc4[nH]ccc4c3)cc2OC)C=C1.F[P-](F)(F)(F)(F)F.[Cu+] [Compound C14]
anticancer activity increase of copper(I) complex compared with its ligand ([3]; 231BR, C14 compared with L14): 5.9 times | pIC50 ([5]; read-out: Approximate IC50, primary screening, MCF10A normal cell line, 48 h, 10 times serial dilution): < 3.41 | pIC50 [6, 14]: 4.42

CCC1=NC(=Cc2[nH]c(-c3cccc4cc[nH]c34)cc2OC)C=C1.CCC1=NC(=Cc2[nH]c(-c3cccc4cc[nH]c34)cc2OC)C=C1.F[P-](F)(F)(F)(F)F.[Cu+] [Compound C15]
pIC50 [3, 9]: 4.50

CCC1=N/C(=C\c2[nH]c(-c3cccn3C(=O)OC(C)(C)C)cc2OC)C=C1 [Compound L7]
pIC50 [7, 15]: 5.12 to 6.12 | IC50 ([1]; Homo sapiens, MDA-MB-231, 48 h; read-out: IC50, secondary cytotoxicity test): 0.0278 µg/mL | pIC50 [1, 16]: 6.12 to 7.12 | pIC50 [1, 17]: 7.12 | IC50 ([2]; Homo sapiens, MDA-MB-361, 48 h, read-out: IC50, secondary cytotoxicity test): 0.00212 mg/mL | pIC50 [2, 18]: 5.12 to 6.12 | pIC50 ([2]; Homo sapiens, MDA-MB-361, 361, 48 h, Table S4, read-out: IC50, secondary cytotoxicity test): 5.24 | pIC50 [3, 9]: 7.12 | pIC50 [3, 11]: 7.33 | IC50 ([3]; 231BR, 48 h, read-out: IC50, secondary cytotoxicity test): 0.017 µg/mL | pIC50 [4, 10]: 6.12 to 7.12 | pIC50 [4, 12]: 6.86 | IC50 ([4]; HTB131, 48 h, read-out: IC50, secondary cytotoxicity test): 0.0512 µg/mL | IC50 at 48 h ([8]; MCF10A normal breast cells): 3930 nM | pIC50 [5, 19]: 6.12 to 7.12 | pIC50 [6, 14]: 5.12 to 6.12 | pIC50 [6, 13]: 6.39 | IC50 ([6]; CRL, 48 h, read-out: IC50, secondary cytotoxicity test): 0.15 µg/mL

CCC1=N/C(=C\c2[nH]c(-c3ccn[nH]3)cc2OC)C=C1 [Compound L9]
pIC50 [7, 15]: < 3.78 | pIC50 [3, 9]: < 3.77 | pIC50 [6, 14]: < 3.78

CCC1=N/C(=C\c2[nH]c(-c3ncc[nH]3)cc2OC)C=C1 [Compound L10]
pIC50 [3, 9]: 3.55

CCC1=N/C(=C\c2[nH]c(-c3ccc4cc[nH]c4c3)cc2OC)C=C1 [Compound L13]
pIC50 [1, 17]: 5.46 | pIC50 [3, 9]: 5.51 | pIC50 [3, 11]: 5.30 | pIC50 [4, 12]: 4.90 | IC50 at 48 h ([8]; MCF10A normal breast cells): 3700 nM | pIC50 [6, 13]: 5.19

CCC1=N/C(=C\c2[nH]c(-c3ccc4[nH]ccc4c3)cc2OC)C=C1 [Compound L14]
pIC50 [7, 15]: < 4.10 | pIC50 [6, 14]: < 4.10

CCC1=N/C(=C\c2[nH]c(-c3cccc4cc[nH]c34)cc2OC)C=C1 [Compound L15]
pIC50 ([3]; 48 h, 231BR, 48 h, 10 times serial dilution, read-out: Approximate IC50, primary screening): 4.49

CCC1=NC(=Cc2[nH]c(-c3cccn3C(=O)OC(C)(C)C)cc2OC)C=C1 [L ^7]
pIC50 [1]: 7.12 | pIC50 [3]: 7.33 | pIC50 [5]: 5.47 | times lower cytotoxicity on normal cell line [5]: more than 80 times

CCCCCC1=C/C(=C/c2[nH]c(-c3ccc[nH]3)cc2OC)N=C1C [Ps, Prodigiosin]
pIC50 ([7]; 48 h): < 4.12 | pIC50 ([1]; Homo sapiens, MDA-MB-231, 48 h, read-out: Approximate IC50, primary screening): 5.12 to 6.12 | IC50 ([1]; Homo sapiens, MDA-MB-231, 48 h, read-out: IC50, secondary cytotoxicity test): 0.511 µg/mL and 1.58 µM | pIC50 ([2]; Homo sapiens, MDA-MB-361, 48 h, read-out: Approximate IC50, primary screening, 361, 48 h, 10 times serial dilution): < 5.12 | pIC50 ([2]; Homo sapiens, MDA-MB-361, 48 h, read-out: IC50, secondary cytotoxicity test, 361, 48 h, Table S4): < 4.12 | pIC50 ([2]; Homo sapiens, MDA-MB-361, 48 h, read-out: IC50, secondary cytotoxicity test, 361, 48 h, increased drug concentration): 3.64 | IC50 ([2]; Homo sapiens, MDA-MB-361, 48 h, read-out: IC50, secondary cytotoxicity test, 361, 48 h, increased drug concentration (mg/mL)): 0.074 mg/mL | IC50 ([3]; 48 h, read-out: IC50, secondary cytotoxicity test, 231BR, 48 h): 0.312 µg/mL | pIC50 ([3]; 48 h, read-out: IC50, secondary cytotoxicity test, 231BR, 48 h, narrow concentration range): 6.02 | pIC50 [4, 20]: 5.12 to 6.12 | IC50 [4, 21]: 2.81 µM and 0.91 µg/mL | IC50 at 48 h [8]: 8.75 µM and 2.84 µg/mL | pIC50 [5, 19]: 5.12 | pIC50 [6, 20]: 5.12 to 6.12 | IC50 [6, 21]: 4.64 µM and 1.5 µg/mL

CC(=O)O[C@H]1C(=O)[C@@]2(C)[C@H]([C@H](OC(=O)c3ccccc3)[C@]3(O)C[C@H](OC(=O)[C@H](O)[C@@H](NC(=O)c4ccccc4)c4ccccc4)C(C)=C1C3(C)C)[C@]1(OC(C)=O)CO[C@@H]1C[C@@H]2O [Taxol, paclitaxel, reference compound]
pIC50 [1, 16]: 7.67 | pIC50 [2, 18]: < 5.12 | pIC50 [3, 9]: 7.41 | pIC50 [4, 10]: 7.24 | pIC50 [5, 19]: < 5.12 | times lower cytotoxicity on normal cell line ([5]; normal cell line MCF10A relative to 231BR): more than 700 times | pIC50 [6, 14]: 7.55
